Publication PMC9229160 (Pharmaceuticals, 2022)

Target: T1, human kappa-opioid receptor (KOR) (Homo sapiens, UniProt P41145)
T1 construct: gene OPRK1
Assay: [3H]U69, […] radioligand competition binding, CHO-hKOR membranes; […]GTPγS antagonism (Ke […])

Cc1c(NC(=O)c2ccc(Cl)cc2)cc(-c2ccccc2)n1CCCN1CCOCC1 [Compound A] was tested. Which Ki did it give?
Its Ki is 1350 ± 320 nM.
